COc1c(N2CCNC(C)C2)c(F)cc2c(=O)c(C(=O)O)cn(C3CC3)c12 (configuration not stated)
solubility (mole fraction)
Conditions	273.15 K	278.15 K	283.15 K	288.15 K	293.15 K	298.15 K	303.15 K	308.15 K	313.15 K	318.15 K
in 1,4-dioxane	–	–	–	0.000952	0.00111	0.00129	0.00149	0.00172	0.00198	0.00228
in 2-butanone	0.00158	0.00186	0.00219	0.00257	0.003	0.00349	0.00405	0.00468	0.00539	0.0062
in DMF	0.00259	0.00305	0.00359	0.00417	0.00486	0.00566	0.00653	0.00751	0.00864	0.00989
in acetone	0.00081	0.000942	0.00111	0.0013	0.00152	0.00177	0.00204	0.00235	0.0027	0.00309
in acetonitrile	0.0013	0.0015	0.00177	0.00208	0.00244	0.00281	0.00322	0.0037	0.00424	0.00485
in ethanol	0.000261	0.000326	0.000403	0.000489	0.000585	0.000698	0.000829	0.000984	0.00116	0.00136
in ethyl acetate	0.00323	0.00378	0.0044	0.00509	0.00588	0.00679	0.00778	0.00893	0.0102	0.0117
in isopropanol	0.000123	0.000158	0.000204	0.000254	0.000322	0.000401	0.000498	0.000613	0.000751	0.000912
in methanol	0.00019	0.000232	0.000294	0.00036	0.000438	0.000531	0.000637	0.000752	0.000902	0.00107
in n-butanol	0.00105	0.00122	0.00143	0.00169	0.00195	0.00225	0.0026	0.00299	0.00344	0.00395
in n-propanol	0.000364	0.000445	0.000545	0.000655	0.000778	0.000922	0.00109	0.00127	0.00149	0.00173
in toluene	5.9e-05	8.1e-05	0.000109	0.000146	0.000199	0.000261	0.000344	0.000446	0.000577	0.000742

Source: BigSolDB 2.1
